Laboratory results: the supplement of paper PMC10307832

Compound: OCc1c[nH]c2ccccc12 [Indole-3-carbinol] + CCNC(=O)c1noc(-c2cc(C(C)C)c(O)cc2O)c1-c1ccc(CN2CCOCC2)cc1 [Luminespib] (partner 0.01 µM)
Assay: relative viability (nuclei count vs DMSO), 5 days (fraction); higher = more cells survive
In short: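 Lung cancer cell lines in 1536-well plates were dosed by pin tool the day after seeding, either with one drug alone or with a fixed anchor-drug dose plus five library-drug doses (not always all listed) in √10 steps. After 5 days, cells were fixed and their nuclei stained in one step (final 0.05% Triton X-100, 1% formaldehyde, 1 ug/ml Hoechst), then counted on 4× images. Relative viability is the nuclei count in treated wells divided by that in vehicle wells. Values are medians of duplicate plates.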

Cell Line	relative viability (first compound 0.253 µM)	relative viability (first compound 0.8 µM)	relative viability (first compound 2.53 µM)	relative viability (first compound 8 µM)
NCI-H647	0.261	0.199	0.156	0.236
NCI-H2009	1.05	1.08	1.05	0.893
EPLC-272H	0.267	0.23	0.377	0.345
NCI-H520	0.188	0.178	0.219	0.211
NCI-H2405	0.847	0.812	0.859	0.696
NCI-H2085	0.456	0.429	0.395	0.498
NCI-H322M	0.828	0.861	0.895	0.783
NCI-H1944	0.792	0.682	0.842	0.79
LC-2-ad	1.13	1.15	1.26	0.953
NCI-H358	0.366	0.447	0.458	0.233
NCI-H2170	0.74	0.665	0.841	0.624
A-427	0.932	0.96	0.908	0.895
NCI-H1666	0.914	0.925	1.01	1.05
LOU-NH91	0.369	0.342	0.306	0.356
ABC-1	–	0.696	0.803	0.509
NCI-H1651	0.848	0.877	0.686	0.753
201T	1.03	1.01	1.07	1
NCI-H3122	0.0769	0.123	0.108	0.0975
NCI-H727	0.355	0.452	0.344	0.328
NCI-H441	0.324	0.334	0.456	0.301
HOP-62	0.911	0.927	0.937	0.831
RERF-LC-KJ	1.25	1.18	1.23	1.11
HCC-44	1.04	0.812	1.1	0.942

Cell Line	relative viability (first compound 0.253 µM)	relative viability (first compound 0.8 µM)	relative viability (first compound 2.53 µM)	relative viability (first compound 8 µM)
LCLC-103H	0.873	0.939	0.901	0.811
NCI-H1915	0.695	0.794	0.741	0.662
ChaGo-K-1	0.649	0.658	0.576	0.557
PC-14	0.218	0.143	0.24	0.191
SK-LU-1	0.214	0.228	0.211	0.203
NCI-H1437	1.07	1.2	1.13	1.11
NCI-H1734	0.242	0.246	0.194	0.221
LK-2	0.214	0.203	0.229	0.181
HCC-15	0.529	0.247	0.266	0.225
NCI-H650	0.785	0.882	0.844	0.647
NCI-H2347	0.609	0.215	0.425	0.59
LXF-289	0.787	0.754	0.647	0.575
BEN	0.346	0.188	0.377	0.379
NCI-H2023	0.526	0.751	0.818	0.707
NCI-H661	0.922	0.952	0.965	0.895
NCI-H1355	0.754	0.764	0.618	0.643
NCI-H1793	0.171	0.179	0.142	0.175
COR-L 105	0.758	0.723	0.651	0.656
NCI-H2228	0.108	0.19	0.229	0.151
NCI-H838	0.292	0.305	0.308	0.303
EMC-BAC-2	1.2	1.23	1.09	1.06
LU99A	0.237	0.199	0.209	0.207
PC-3 [JPC-3]	0.644	0.796	0.722	0.658

Cell Line	relative viability (first compound 0.253 µM)	relative viability (first compound 0.8 µM)	relative viability (first compound 2.53 µM)	relative viability (first compound 8 µM)
NCI-H596	0.734	1.01	0.913	1
LCLC-97TM1	0.823	0.935	0.859	0.865
NCI-H1993	1.02	0.915	0.889	0.823
HARA	0.616	0.576	0.675	0.55
NCI-H460	0.0368	0.037	0.0298	0.0346
NCI-H1650	0.167	–	0.19	0.221
EKVX	0.972	0.884	0.908	0.848
NCI-H1755	0.554	0.407	0.49	0.348
NCI-H1395	0.606	0.813	0.817	0.686
NCI-H1792	0.416	0.484	0.368	0.398
NCI-H2087	0.119	0.194	0.177	0.172
H3255	0.875	0.9	0.847	0.857
SK-MES-1	0.751	0.88	0.667	0.798
NCI-H23	0.219	–	0.233	0.223
HCC-827	0.579	0.622	0.67	0.644
UMC-11	1.01	0.953	1.04	1.01
NCI-H1975	0.343	0.224	0.171	0.21
NCI-H1563	0.454	0.494	0.512	0.495
COR-L23	0.74	0.754	0.712	0.512
CAL-12T	0.393	0.533	0.592	0.767
SW 1573	0.183	0.248	0.303	0.138
NCI-H2126	0.887	0.876	0.992	0.851
